According to PubChem BioAssay (NCI):
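Each compound was tested at five concentrations against cells in 96-well plates for 48 hours. GI50: concentration for 50% inhibition of growth. TGI denotes the concentration required for complete inhibition of growth.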

Key:
Test in all cases: NCI tumour cell line growth inhibition, 48 h
BT-549 breast = tested on: BT-549 breast
HCC-2998 colon = tested on: HCC-2998 colon
LOX IMVI melanoma = tested on: LOX IMVI melanoma
M14 melanoma = tested on: M14 melanoma
MOLT-4 leukemia = tested on: MOLT-4 leukemia
NCI/ADR-RES ovarian = tested on: NCI/ADR-RES ovarian
SN12C renal = tested on: SN12C renal
SNB-75 CNS = tested on: SNB-75 CNS
SW-620 colon = tested on: SW-620 colon
CAKI-1 renal = tested on: CAKI-1 renal

Compound | TGI (BT-549 breast) [µM] | TGI (HCC-2998 colon) [µM] | TGI (LOX IMVI melanoma) [µM] | TGI (M14 melanoma) [µM] | TGI (MOLT-4 leukemia) [µM] | TGI (NCI/ADR-RES ovarian) [µM] | TGI (SN12C renal) [µM] | TGI (SNB-75 CNS) [µM] | TGI (SW-620 colon) [µM] | TGI (CAKI-1 renal) [µM] | GI50 (BT-549 breast) [µM] | GI50 (CAKI-1 renal) [µM] | GI50 (HCC-2998 colon) [µM] | GI50 (M14 melanoma) [µM] | GI50 (MOLT-4 leukemia) [µM] | GI50 (SNB-75 CNS) [µM]
c1ccc(-c2cnc(-c3ccc(-c4ncc(-c5ccccc5)o4)cc3)o2)cc1 | > 100 | > 100 | > 100 | > 100 | > 100 | > 100 | > 100 | > 100 | > 100 | – | – | – | – | – | – | –
O=C1CC(Sc2nc3ccc(I)cc3c(=O)n2Cc2ccccc2)C(=O)NN1 (stereo unspecified) | 29.3 | 31.8 | 11.2 | 39.8 | 42.6 | 52.1 | 27.6 | 24.5 | 35.2 | 11.2 | – | – | – | – | – | –
CCc1nc2cc3cccnc3c(Cl)c2[nH]c1=O | > 100 | > 100 | > 100 | > 100 | > 100 | > 100 | > 100 | 50.4 | > 100 | > 100 | – | – | – | – | – | –
CC(C)(C)OC(=O)n1c(-c2ccccc2F)cc(=O)c2cc3c(cc21)OCO3 | > 100 | > 32.3 | – | > 100 | 10 | 0.0555 | – | > 100 | > 100 | > 37.3 | – | – | – | – | – | –
CSC(SC)=C1C(=O)N(c2ccccc2)N=C1C | 81.9 | > 100 | > 100 | 60.8 | 52.9 | > 100 | 97.3 | > 100 | > 100 | 65.8 | – | – | – | – | – | –
Cc1cc2c(nn1)-c1ccccc1C2=O | > 10 | > 10 | > 10 | > 10 | > 10 | > 10 | > 10 | – | > 10 | > 10 | – | – | – | – | – | –
N#Cc1c(C#N)c(-c2ccccc2)n(-c2ccccc2)c1N | > 100 | – | > 100 | > 100 | > 100 | > 100 | > 100 | 86.4 | > 100 | > 100 | – | – | – | – | – | –
CC(C)(C)C(=O)C(Cc1ccccc1)C(=O)C(C)(C)C | – | > 100 | > 100 | > 100 | > 100 | > 100 | > 100 | > 100 | > 100 | > 100 | – | – | – | – | – | –
CC1=CC(=O)C(C(O)(C(F)(F)F)C(F)(F)F)C(C)(C)C1 (stereo unspecified) | – | > 10 | > 10 | > 10 | > 10 | > 10 | > 10 | > 10 | > 10 | > 10 | – | – | – | – | – | –
CC(O)CC(O)(C(F)(F)F)C(F)(F)F (stereo unspecified) | – | > 10 | > 10 | > 10 | > 10 | > 10 | > 10 | > 10 | > 10 | > 10 | – | – | – | – | – | –
CCCCC/C(C=O)=C\c1ccccc1 | > 100 | > 100 | > 100 | > 100 | > 100 | > 100 | – | > 100 | > 100 | > 100 | – | – | – | – | – | –
Nc1nc(Nc2ccccc2)sc1C(=O)c1c[nH]c2ccccc12 | 29.8 | – | 64.8 | 20.6 | 25.8 | 44.7 | 34.4 | – | 31.2 | – | – | – | – | – | – | –
C[C@]12CC[C@H](O)C=C1CC[C@@H]1[C@@H]2CC[C@]2(C)C(c3ccc(=O)oc3)CC[C@]12O (stereo partly specified) | – | 0.208 | 0.242 | – | < 0.0125 | 0.0926 | 0.0773 | 0.0736 | 0.362 | 0.0225 | – | – | – | – | – | –
COC(=O)C1(Cc2ccc3c(c2)CCC3)Cc2cc3c(cc2C1)CCC3 | > 100 | 57.5 | 42.3 | > 100 | > 100 | > 100 | > 100 | > 100 | > 100 | – | – | – | – | – | – | –
COC(=O)[C@H](Cc1ccccc1)NC(=O)c1ccc(CNC(=O)/C=C/c2cccc(Oc3ccccc3)c2)cc1 | > 100 | 89.7 | – | 30.8 | > 100 | > 100 | 75.9 | > 100 | > 100 | 58.1 | – | – | – | – | – | –
O=C1CS(=O)C23c4cc5ccccc5n4CCC2CCCN13 (stereo unspecified) | > 100 | – | > 100 | > 100 | > 100 | > 100 | > 100 | – | > 100 | > 100 | – | – | – | – | – | –
CCOC(=O)[C@@H]1ON2O[C@@H](OC3CCCC3(c3ccccc3)c3ccccc3)C[C@H]3OC(=O)[C@@H]1C32 (stereo partly specified) | – | > 100 | > 100 | 51.9 | > 100 | > 100 | 80.3 | > 100 | 64.5 | 31.6 | – | – | – | – | – | –
c1csc(-c2c3ccc(=[N+]4CCCCC4)cc-3oc3cc(N4CCCCC4)ccc23)c1 | 0.32 | 0.14 | – | 0.215 | 0.473 | – | – | 0.508 | – | 0.305 | 0.135 | 0.131 | 0.0391 | 0.0776 | 0.0515 | 0.123
CCCOC(=O)NC(C)C(=O)NC(CCC(=O)NC(CCCC(N)C(=O)O)C(=O)NC(C)C(=O)O)C(=O)O (stereo unspecified) | 37.9 | 34.8 | 30.1 | 40.6 | 41.9 | 37 | > 100 | – | 62.3 | 40.7 | – | – | – | – | – | –
COc1cc2c(cc1OC)C13CC[N+]4(C)CC5=CCOC6CC(=O)N2C1C6C5CC34[O-] (stereo unspecified) | > 100 | – | > 100 | > 100 | > 100 | > 100 | > 100 | > 100 | > 100 | > 100 | – | – | – | – | – | –
CC1(C)[C@@H](Cn2cnc3c(Cl)nc(N)nc32)CC[C@@]1(C)CO | – | 48.7 | 80.9 | > 100 | – | > 100 | > 100 | > 100 | > 100 | > 100 | – | – | – | – | – | –
CCOC(CN(C)C(=S)Nc1cccc2ccccc12)OCC | – | > 10 | > 10 | > 10 | > 10 | > 10 | > 10 | > 10 | > 10 | > 10 | – | – | – | – | – | –
S=C1CC(c2ccccc2)Sc2ccc(Cl)cc2N1 (stereo unspecified) | > 100 | – | > 100 | > 100 | > 100 | > 100 | > 100 | > 100 | – | > 100 | – | – | – | – | – | –
